Results published in patent US20090247602A1, “COSMETIC USE OF CONJUGATED COMPOUNDS OF INDOLIC AUXINS” (EXSYMOL S.A.M., priority 2008, published 2009).

Tested on: sensory neurons from explants of rachidian ganglia of rat embryos
Experiment: Neurotrophic activity test: neurite outgrowth of dissociated sensory neurons
Format: cell-based
Settings: 72 hours incubation; for % compared to the control: control = case 1
Description: In other respects, and forming the basis of the present invention, it has been discovered for a very small panel of structures limited to the only conjugates of aspartic and glutamic acids, an unexpected property that is a said-neurotrophic activity. This activity is also found in a class of endogenous proteins, the neurotrophins, and in particular in the “NGF” (or “nerve growth factor”), an essential growth and survival factor in the formation and the maintenance of the cutaneous nervous network (M. Bothwell, J. Invest. Dermatol. Symposium Proceedings (1997), vol. 2, pp. 27-30). This remarkable activity, without any connection with antioxidant properties of these compounds, has been evidenced through an in vitro test that consists in measuring the neurites outgrowth kinetics from rat embryos sensory neurons selected for their physiology very similar to the one of human sensory neurons.
Test: Evidence of the Neurotrophic Activity of Aminoacid Conjugates of Indolic Auxins
The experimental study has been achieved on dissociated sensory neurons from explants of rachidian ganglia of rat embryos, and prepared according to the method described by Hall A. K. and al (J. Neurosci. (1997), vol. 17, pp. 2775-2784). After dissection and dissociation, sensory neurons are at once incubated in the following culture media (in hexaplicate), according to three situations: • case 1: culture medium without NGF, and without active ingredient according to the invention (control) • case 2: culture medium without NGF, with an active ingredient according to the invention • case 3: culture medium with NGF (positive reference)
After an incubation time of 72 hours, cells are washed and fixed. They are then labelled by an anti β-tubulin antibody reacting with cellular bodies and outgrowths of neurons. After a disclosure with an Alexa Fluor 488 secondary antibody, colour picture inputs were proceeded (using “In Cell Analyzer 1000™”). These digital data are then used for measuring a relative density of neurite length compared to the non treated control (case 1).
The neurotrophic effect of tested compounds is expressed by an increase (in μm) of this density of neurite outgrowth of neurons, synonymous with a strengthended development kinetic of neuronal network and a better viability (survival) of this latter.

[1] = 0.12 mg/ml, medium without NGF (case 2)
[2] = 5.10^−6 mg/ml, medium with NGF (case 3, positive reference)

Row | Molecule | Average density of neurite outgrowth of sensory neurons [1] [μm] | % compared to the control [1] [%] | Average density of neurite outgrowth of sensory neurons [2] [μm] | % compared to the control [2] [%]
1 | O=C(O)C[C@H](NC(=O)Cc1c[nH]c2ccccc12)C(=O)O [IAA-Asp] | 6820 | 108 | – | –
2 | O=C(O)CC[C@H](NC(=O)Cc1c[nH]c2ccccc12)C(=O)O [IAA-Glu, indolyl-3-acetylglutamic acid] | 7335 | 117 | – | –
3 | O=C(O)C[C@H](NC(=O)CCCc1c[nH]c2ccccc12)C(=O)O [IBA-Asp, indolyl-3-butyrylaspartic acid] | 8297 | 132 | – | –
4 | O=C(O)CC[C@H](NC(=O)CCCc1c[nH]c2ccccc12)C(=O)O [IBA-Glu] | 7195 | 114 | – | –
5 | O=C(O)C[C@H](NC(=O)CCc1c[nH]c2ccccc12)C(=O)O [IPA-Asp] | 6980 | 111 | – | –
6 | O=C(O)CC[C@H](NC(=O)CCc1c[nH]c2ccccc12)C(=O)O [IPA-Glu] | 8247 | 131 | – | –
7 | NGF: nerve growth factor, a neurotrophin; positive reference (case 3) | – | – | 11750 | 187
